# From patent publication US8084196B2, “Method for the in vitro screening of anti-cancer compounds that inhibits SK3 activity, and said anti-cancer compounds” (priority 2006, dated 2011)
# What was measured:
# [1] = test system: MDA-MB-435s cells; type: cell-based, human; details: current-clamp, FIG. 2D
# Method: D—Variations of membrane potential recorded in control conditions (PSS without drugs, n=11) and in presence of TEA (n=7), 4-AP (n=8) and TEA plus 4-AP (n=3). Membrane potential was measured in current-clamp mode (I=0) just after the disruption of the patch membrane.
# (§1) Whole-cell potassium currents and intracellular Ca^2+ ([Ca^2+]i) measurements were recorded as described (Roger S, Potier M, Vandier C, Le Guennec J Y, Besson P. Description and role in proliferation of iberiotoxin-sensitive currents in different human mammary epithelial normal and cancerous cells. (Biochim Biophys Acta 2004; 1667:190-9.). Signals were captured using 1322-A Digidata converter (Axon Instruments, USA) and pClamp 8.1 software (Axon Instruments, USA). The analysis were performed using Clampfit 8.1 and Origin 7.0 softwares (Microcal Software, Northampton, Mass., USA).
# (§2) The physiological saline solution (PSS) in mM: NaCl 140, MgCl2 1, KCl 4, CaCl2 2, D-glucose 11.1, and HEPES 10, adjusted to pH 7.4 with NaOH. The pipette solution for the whole-cell recording, pCa=7 was (in mM): K-glutamate 125, KCl 20, CaCl2 0.37, MgCl2 1, Mg-ATP 1, EGTA 1, HEPES 10, adjusted to pH 7.2 with KOH. […] All drugs and chemicals were purchased from Sigma-Aldrich (St Quentin, France), except Lei-Dab7 which was a generous gift from Dr. J. M. Sabatier, UMR CNRS 6560, Marseille, France.
# [2] = biological target: SK3 (Homo sapiens, UniProt Q9UGI6); details: apamin: low concentration (1 nM); cited from earlier work
# [3] = test system: MDA-MB-435s cells; details: for decrease of outward currents: FIG. 2C
# Method: Currents were generated by stepwise 8 mV depolarizing pulses (400 ms duration; 5 sec intervals) from a constant holding potential of −70 mV up to +58 mV. Signals were filtered at 1 kHz and digitized at 10 kHz.
# B, C—Current-density was obtained by dividing the averaged steady-state current elicited at +26 mV (recorded during the latest 50 ms of the pulse) by the respective cell capacitance. Membrane capacitance was calculated by integrating the capacitive current measured during a 10 mV voltage step.
# as §1, §2
# [4] = biological target: SK2 (Homo sapiens, UniProt Q9H2S1); details: apamin: low concentration (1 nM); cited from earlier work
# [5] = test system: SK3 protein; assay: Western blot of SK3 protein after siRNA transfection, MDA-MB-435s; type: cell-based, human; details: 24, 48, 72 h after transfection vs scrambled-siRNA, greatest effect at 72 hours
# Method: A—Top, Western blot patterns showing the silencing effect on the expression of SK3 protein—of two siRNAs designed against SK3 mRNA. Cells were transfected with siRNA-lipofectamine complexes for 24 h, 48 h and 72 h. A scrambled-siRNA was used as negative control. SiRNA oligonucleotide sequences are listed in the Materials and Methods section. Bottom, Histograms showing the inhibitory effect on […] cell migration after 24 h, 48 h and 72 h siRNA transfection with or without 10 nM apamin. Results from two separate experiments performed in triplicate are expressed as mean±S.E.M. Normalization of cell number performed as described in the legend of FIG. 1. Note that the cells have lost their sensitivity for apamin after siRNA transfection, indicating a specific effect on SK3 protein.
# For Western blot experiments, proteins were electrotransferred onto polyvinylidene fluoride membranes which were incubated with antibodies directed against SK2 and SK3 proteins (1:1000) followed by incubation with a horseradish peroxidase-conjugated anti-rabbit IgG (1:5000; Tebu-Bio, France). Anti-SK2 directed against amino acids 542-559 and anti-SK3 directed against amino acids 2-21 (Sigma-Aldrich, France) were used for Western blot and immunocytochemical experiments. Anti-Actin directed against amino acids 20-33 (Sigma-Aldrich, France) was used for western blot loading control experiments. […]
# [6] = test system: 518A2 cells; assay: Cell migration, 518A2 melanoma cells; type: cell-based; details: 518A2, 48 hours after transfection, FIG. 8B
# Method: Histograms showing the effect of 10 nM apamin on cell migration (FIG. 5A). Cells were seeded at 40000 in a cell culture insert in DMEM with 5% FBS±apamin. The lower compartment of the insert contained DMEM with 10% FBS as a chemoattractant±apamin. After 24 h, cells of the lower side were stained with hematoxylin (FIG. 5B, right) and counted. The normalized cell number corresponded to the ratio of total number of migrating cells in presence of apamin/total number of migrating cells in control experiments. The apamin concentration selected has no effect on cell proliferation and viability. […] Mammary cancer MDA-MB-435s cells were used as control cell. […]
# Cell proliferation was determined using the tetrazolium salt reduction method, as described (Roger S, Potier M, Vandier C, Le Guennec J Y, Besson P. Description and role in proliferation of iberiotoxin-sensitive currents in different human mammary epithelial normal and cancerous cells. Biochim Biophys Acta 2004; 1667:190-9.). […] Cell migration was analyzed in 24-well plates receiving 8-μm pore size polyethylene terephtalate membrane cell culture inserts (Becton Dickinson, France), as described (Roger S, Potier M, Vandier C, Le Guennec J Y, Besson P. Description and role in proliferation of iberiotoxin-sensitive currents in different human mammary epithelial normal and cancerous cells. Biochim Biophys Acta 2004; 1667:190-9.).
# [7] = test system: SK3 protein; assay: Western blot of SK3 protein after siRNA transfection, 518A2; type: cell-based, human; details: 518A2, 48 hours after transfection vs scrambled-siRNA, FIG. 8A
# Method: FIG. 8A—Western blot patterns showing the silencing effect on the expression of SK3 protein of two siRNAs designed against SK3 mRNA. Cells were transfected with siRNA-lipofectamine complexes for 48 h. A scrambled-siRNA was used as negative control. siRNA oligonucleotide sequences are listed in the Materials and Methods section.
# For Western blot experiments, proteins were electrotransferred onto polyvinylidene fluoride membranes which were incubated with antibodies directed against SK2 and SK3 proteins (1:1000) followed by incubation with a horseradish peroxidase-conjugated anti-rabbit IgG (1:5000; Tebu-Bio, France). Anti-SK2 directed against amino acids 542-559 and anti-SK3 directed against amino acids 2-21 (Sigma-Aldrich, France) were used for Western blot and immunocytochemical experiments. Anti-Actin directed against amino acids 20-33 (Sigma-Aldrich, France) was used for western blot loading control experiments.
# Two SK3 specific siRNA were designed: first set, hSK3-ex1-Sense 5′-GAAAGCGACUGAGUGACUAdTdT-3′ (sequence SEQ ID No. 5) and hSK3-ex1-Antisense 5′-UAGUCACUCAGUCGCUUCdTdT-3′, (sequence SEQ ID N 06) located in exon 1; second set, hSK3-ex3-Sense 5′-CCAUUCCUGGCGAGUACAAdTdT-3′ (sequence SEQ ID No. 7) and hSK3-ex3-Antisense 5′-UUGUACUCGCCAGGAAUGGdTdT-3′, (sequence SEQ ID No. 8) located in exon 3. […]
# [8] = test system: MDA-MB-435s cells; type: cell-based, human; details: FIG. 4A; for number of migrating cells after siRNA transfection: MDA-MB-435s, 24, 48, 72 h after transfection
# Method: Cells were seeded at 40000 in a cell culture insert in DMEM with 5% FBS±drugs or [K^+] 60 mM. […] 60 mM. After 24 h, cells of the lower compartment were stained with hematoxylin (A, bottom) and counted. The normalized cell number corresponded to the ratio of total number of migrating cells in presence of drug or [K^+] 60 mM/total number of migrating cells in control experiments. […] Scale bar=10 μm for the two panels.
# Cell proliferation was determined using the tetrazolium salt reduction method, as described (Roger S, Potier M, Vandier C, Le Guennec J Y, Besson P. Description and role in proliferation of iberiotoxin-sensitive currents in different human mammary epithelial normal and cancerous cells. Biochim Biophys Acta 2004; 1667:190-9.). Cells were seeded on 24-well plates and grown for 48 h. […] Cell migration was analyzed in 24-well plates receiving 8-μm pore size polyethylene terephtalate membrane cell culture inserts (Becton Dickinson, France), as described (Roger S, Potier M, Vandier C, Le Guennec J Y, Besson P. Description and role in proliferation of iberiotoxin-sensitive currents in different human mammary epithelial normal and cancerous cells. Biochim Biophys Acta 2004; 1667:190-9.).
# Sequence of SK3 protein (Q9UGI6 other isoform, or with tags, fused parts or gaps DUP76-80): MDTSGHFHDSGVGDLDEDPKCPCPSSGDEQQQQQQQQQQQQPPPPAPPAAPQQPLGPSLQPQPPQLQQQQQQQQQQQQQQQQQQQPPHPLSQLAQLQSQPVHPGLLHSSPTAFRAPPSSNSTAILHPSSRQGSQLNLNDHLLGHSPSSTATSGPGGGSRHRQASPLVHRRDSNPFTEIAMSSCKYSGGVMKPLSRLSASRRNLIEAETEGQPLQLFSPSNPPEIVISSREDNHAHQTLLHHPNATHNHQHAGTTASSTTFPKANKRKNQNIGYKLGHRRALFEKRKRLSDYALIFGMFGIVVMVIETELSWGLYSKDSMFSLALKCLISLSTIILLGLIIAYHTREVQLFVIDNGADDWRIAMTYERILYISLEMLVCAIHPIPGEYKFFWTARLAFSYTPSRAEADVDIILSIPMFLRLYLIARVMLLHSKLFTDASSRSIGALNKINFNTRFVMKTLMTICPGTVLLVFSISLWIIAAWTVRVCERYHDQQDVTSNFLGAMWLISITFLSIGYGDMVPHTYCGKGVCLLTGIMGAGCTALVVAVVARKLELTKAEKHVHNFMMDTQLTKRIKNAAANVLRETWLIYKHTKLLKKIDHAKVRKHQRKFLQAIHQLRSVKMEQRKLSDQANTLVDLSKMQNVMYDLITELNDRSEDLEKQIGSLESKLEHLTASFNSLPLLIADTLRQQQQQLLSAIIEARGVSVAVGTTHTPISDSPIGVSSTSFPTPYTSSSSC
# Sequence of SK3 (Q9UGI6 whole entry): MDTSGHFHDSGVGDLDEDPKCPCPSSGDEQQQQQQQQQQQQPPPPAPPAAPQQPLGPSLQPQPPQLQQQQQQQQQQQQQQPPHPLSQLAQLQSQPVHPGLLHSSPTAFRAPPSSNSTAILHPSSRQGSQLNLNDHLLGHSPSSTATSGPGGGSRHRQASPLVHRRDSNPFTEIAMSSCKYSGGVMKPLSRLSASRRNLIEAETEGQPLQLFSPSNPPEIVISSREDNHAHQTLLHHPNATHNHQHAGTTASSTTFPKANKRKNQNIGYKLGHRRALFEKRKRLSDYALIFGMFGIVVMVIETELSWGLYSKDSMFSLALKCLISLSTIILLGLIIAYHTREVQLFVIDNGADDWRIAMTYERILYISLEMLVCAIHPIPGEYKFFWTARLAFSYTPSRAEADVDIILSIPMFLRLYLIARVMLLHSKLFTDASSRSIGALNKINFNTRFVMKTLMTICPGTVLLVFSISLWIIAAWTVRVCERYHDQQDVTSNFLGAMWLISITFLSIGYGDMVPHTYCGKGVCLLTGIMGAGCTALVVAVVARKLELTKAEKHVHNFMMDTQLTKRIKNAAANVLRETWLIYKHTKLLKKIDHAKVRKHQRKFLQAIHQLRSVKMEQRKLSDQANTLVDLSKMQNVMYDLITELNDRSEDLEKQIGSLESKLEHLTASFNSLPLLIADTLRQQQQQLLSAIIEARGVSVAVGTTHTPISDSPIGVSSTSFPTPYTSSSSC
# Sequence of SK2 (Q9H2S1 whole entry): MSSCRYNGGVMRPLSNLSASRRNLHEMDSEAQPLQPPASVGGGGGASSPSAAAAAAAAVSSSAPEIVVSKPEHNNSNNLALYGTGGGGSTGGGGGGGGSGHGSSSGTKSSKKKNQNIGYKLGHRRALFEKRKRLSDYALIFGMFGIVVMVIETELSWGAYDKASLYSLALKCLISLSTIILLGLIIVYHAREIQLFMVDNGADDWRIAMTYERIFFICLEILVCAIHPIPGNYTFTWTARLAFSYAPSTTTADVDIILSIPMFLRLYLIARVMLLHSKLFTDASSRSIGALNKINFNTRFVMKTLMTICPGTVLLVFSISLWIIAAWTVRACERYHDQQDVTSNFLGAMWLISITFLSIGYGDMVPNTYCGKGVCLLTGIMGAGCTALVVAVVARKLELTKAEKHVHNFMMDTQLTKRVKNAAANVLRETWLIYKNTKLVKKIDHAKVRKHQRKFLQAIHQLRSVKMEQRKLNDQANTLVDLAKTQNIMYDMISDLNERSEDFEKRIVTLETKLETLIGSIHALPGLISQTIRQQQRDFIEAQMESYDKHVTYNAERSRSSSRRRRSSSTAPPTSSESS
Compound,effect on membrane potential [1],block of SK3 channel [2],decrease of outward currents [3] [%],SK3 expression (Western blot) [5],number of migrating cells after siRNA transfection [8],further results
"Nc1ccncc1 [4-AP, 4-aminopyridine]",depolarized,blocks,50,,,
"CC[N+](CC)(CC)CC [TEA, tetraethylammonium]",depolarized,blocks,50,,,block of SK2 channel [4]: blocks
CC(C)C[C@@H]1NC(=O)[C@H](C)NC(=O)[C@H]([C@@H](C)O)NC(=O)[C@H](CCC(=O)O)NC(=O)[C@@H]2CCCN2C(=O)[C@H](C)NC(=O)[C@H](CCCCN)NC(=O)[C@@H]2CSSC[C@@H](C(=O)N[C@@H](CCC(N)=O)C(=O)N[C@@H](CCC(N)=O)C(=O)N[C@@H](Cc3cnc[nH]3)C(N)=O)NC(=O)[C@H](CCCNC(=N)N)NC(=O)[C@H](CCCNC(=N)N)NC(=O)[C@H](C)NC(=O)[C@H](CSSC[C@H](N)C(=O)N[C@@H](CC(N)=O)C(=O)N2)NC1=O [apamin],,,,,,"IC50 ([3]; read-out: estimated IC50 of block of outward currents, whole-cell, dose-dependent, FIG. 2B): < 0.1 nM"
"ΔExon1-siRNA: siRNA against SK3 exon 1, sense 5′-GAAAGCGACUGAGUGACUAdTdT-3′ (SEQ ID No. 5), antisense SEQ ID No. 6 (sense GAAAGCGACUGAGUGACUADTDT; antisense UAGUCACUCAGUCGCUUCDTDT; chemistry not fully specified)",,,,marked suppression,markedly reduced,number of migrating cells after siRNA transfection [6]: markedly reduced; SK3 expression (Western blot) [7]: decrease
"ΔExon3-siRNA: siRNA against SK3 exon 3, sense 5′-CCAUUCCUGGCGAGUACAAdTdT-3′ (SEQ ID No. 7), antisense SEQ ID No. 8 (sense CCAUUCCUGGCGAGUACAADTDT; antisense UUGUACUCGCCAGGAAUGGDTDT; chemistry not fully specified)",,,,marked suppression,markedly reduced,relative efficiency of the siRNAs (Western blot and migration) ([8]; MDA-MB-435s): more efficient than ΔExon1-siRNA
